Laboratory results as given in patent US20140235613A1, “SUBSTITUTED DIARYL AZETIDINE DERIVATIVES AS SPHINGOSINE RECEPTOR MODULATORS” (Allergan, Inc., priority 2013, published 2014).

Target: T1, human S1P1 receptor (Homo sapiens, UniProt P21453)
T1 construct: expressed in transfected cells; membranes used
Test: GTP γ35S binding assay for S1P1 activity
Assay type: biochemical
Details: Activity potency: S1P1 receptor from GTP γ35S; membranes; test concentration range 0.08 to 5,000 nM
Description: Compounds were tested for S1P1 activity using the GTP γ^35S binding assay. These compounds may be assessed for their ability to activate or block activation of the human S1P1 receptor in cells stably expressing the S1P1 receptor.
[…] binding was measured in the medium containing (mM) HEPES 25, pH 7.4, MgCl2 10, NaCl 100, dithitothreitol 0.5, digitonin 0.003%, 0.2 nM GTP γ^35S, and 5 μg membrane protein in a volume of 150 μl. Test compounds were included in the concentration range from 0.08 to 5,000 nM unless indicated otherwise. Membranes were incubated with 100 μM 5′-adenylylimmidodiphosphate for 30 min, and subsequently with 10 μM GDP for 10 min on ice.
Drug solutions and membrane were mixed, and then reactions were initiated by adding GTP γ^35S and continued for 30 min at 25° C. Reaction mixtures were filtered over Whatman GF/B filters under vacuum, and washed three times with 3 mL of ice-cold buffer (HEPES 25, pH7.4, MgCl2 10 and NaCl 100). Filters were dried and mixed with scintillant, and counted for ^35S activity using a β-counter. Agonist-induced GTP γ^35S binding was obtained by subtracting that in the absence of agonist. Binding data were analyzed using a non-linear regression method. In case of antagonist assay, the reaction mixture contained 10 nM S1P in the presence of test antagonist at concentrations ranging from 0.08 to 5000 nM.

T1 sequence (P21453 whole entry): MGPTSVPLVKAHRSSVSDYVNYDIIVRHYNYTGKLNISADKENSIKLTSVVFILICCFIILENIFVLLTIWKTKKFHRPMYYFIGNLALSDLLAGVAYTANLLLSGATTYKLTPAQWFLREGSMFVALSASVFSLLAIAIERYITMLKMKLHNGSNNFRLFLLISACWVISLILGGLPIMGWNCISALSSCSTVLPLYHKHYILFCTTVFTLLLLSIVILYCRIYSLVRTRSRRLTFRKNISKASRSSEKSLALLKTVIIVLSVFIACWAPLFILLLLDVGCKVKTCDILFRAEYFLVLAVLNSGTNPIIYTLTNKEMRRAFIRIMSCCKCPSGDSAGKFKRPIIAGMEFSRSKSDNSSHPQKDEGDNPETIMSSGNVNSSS

EC50 [µM]	SMILES
0.297	O=C(O)C1CN(Cc2ccc(CC/N=c3\scc(-c4ccccc4)n3-c3ccccc3)cc2)C1 [Compound 1, 1-[4-(2-{[(2Z)-3,4-diphenyl-1,3-thiazol-2(3H)-ylidene]amino}ethyl)benzyl]azetidine-3-carboxylic acid]
5.6	O=C(O)C1CN(Cc2ccc(CCSc3ncc(-c4ccccc4)n3-c3ccccc3)cc2)C1 [Compound 2, 1-(4-{2-[(1,5-diphenyl-1H-imidazol-2-yl)thio]ethyl}benzyl)azetidine-3-carboxylic acid]
